Experimental data published in PubChem BioAssay (NCI).
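Step 1: Grow cells in 96-well plates. Step 2: Expose to compound for 48 hours at 5 concentrations. Step 3: Interpolate endpoints linearly; if unreached, use highest concentration. At the GI50, growth is halved. Definition used: TGI = concentration required for complete inhibition of growth.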

Tests used:
Experiment in all cases: NCI tumour cell line growth inhibition, 48 h
CCRF-CEM leukemia = system: CCRF-CEM leukemia
DU-145 prostate = system: DU-145 prostate
HCT-15 colon = system: HCT-15 colon
OVCAR-3 ovarian = system: OVCAR-3 ovarian
OVCAR-4 ovarian = system: OVCAR-4 ovarian
OVCAR-8 ovarian = system: OVCAR-8 ovarian
RXF 393 renal = system: RXF 393 renal
SN12C renal = system: SN12C renal
TK-10 renal = system: TK-10 renal
SK-MEL-28 melanoma = system: SK-MEL-28 melanoma

Structure (SMILES)	TGI (CCRF-CEM leukemia) [µM]	TGI (DU-145 prostate) [µM]	TGI (HCT-15 colon) [µM]	TGI (OVCAR-3 ovarian) [µM]	TGI (OVCAR-4 ovarian) [µM]	TGI (OVCAR-8 ovarian) [µM]	TGI (RXF 393 renal) [µM]	TGI (SN12C renal) [µM]	TGI (TK-10 renal) [µM]	TGI (SK-MEL-28 melanoma) [µM]	GI50 (OVCAR-3 ovarian) [µM]
NC(=O)c1c(NC=O)ncn1C1OCC(O)C(O)C1O (stereo not given)	> 100	> 100	> 100	> 100	> 100	> 100	> 100	> 100	> 100	–	–
CC[C@H](C)C1=C(O)[N@+]2([O-])Oc3ccc(-c4c(O)c(O)c(-c5ccc(O)cc5)c(OC(C)=O)c4OC(C)=O)cc3O[C@]2([C@@H](C)CC)C(=O)N1O	–	> 50	> 50	> 50	36.2	> 50	> 50	> 50	> 50	> 50	–
CN(C)c1cccc2c1C(=O)C=CC21CCc2ccc(N(C)C)c3c(N(C)C)ccc1c23 (stereo not given)	87.7	17.5	–	24.8	83.4	53.2	20.8	26.5	28.1	30.4	–
O=C(Nc1nnc(-c2c(Cl)c(Cl)c(Cl)c(Cl)c2-c2nc3cc(C(=O)c4ccccc4)ccc3[nH]2)o1)c1ccc(Cl)cc1	> 100	> 100	> 100	54.1	> 100	> 100	> 100	53	> 100	> 100	–
COc1nc2c(c(=O)n1C)N=C(c1ccc(Cl)cc1)CC(c1ccccc1)N2 (stereo not given)	69.3	> 100	30.4	> 100	48.5	> 100	55	54.4	–	> 100	–
Nc1c2c(nc3ccccc13)-c1ccccc1NCCC2	81.3	> 100	> 100	> 100	> 100	> 100	33.2	> 100	49.6	51.1	–
COc1cc(C2c3cc4c(cc3[C@@H](Oc3ccc(F)cc3)C3COC(=O)[C@H]23)OCO4)cc(OC)c1O (stereo not given in full)	> 23.2	–	> 100	72.3	> 100	> 100	–	> 100	–	> 100	–
S=C(N1CCN(c2cccc(Cl)c2)CC1)N1CCN(c2cccc(Cl)c2)CC1	27.8	> 100	> 100	> 100	> 100	> 100	> 100	–	> 100	> 100	–
COc1ccc2c3c([nH]c2c1)CCN(Cc1ccccc1)C3	> 100	> 100	39	–	> 100	> 100	50.7	78.2	65.1	38	–
N#Cc1c(-c2ccc(Cl)cc2)c2c(N=Nc3c(O)ccc4ccccc34)[nH]nc2[nH]c1=O	–	1.07	2.09	0.0736	3.68	1.21	0.878	2.05	1.8	–	–
Cc1ccc2[nH]c3[nH]c(=S)[nH]c(=O)c3c2c1	> 100	> 100	> 100	> 100	–	> 100	> 100	> 100	> 100	–	–
N#C/C(N)=C(\C#N)N=CNc1ccc(N)cc1	> 100	> 100	> 100	> 100	> 100	> 100	–	> 100	> 100	> 100	–
CCOC(=O)Cc1cnc(NC(NC(=O)CC)(C(F)(F)F)C(F)(F)F)s1	> 100	> 100	> 100	> 100	–	–	> 100	> 100	> 100	> 100	–
O=C1CSC2=NC3=C(CSC/C3=C\c3ccccc3)C(c3ccccc3)N12 (stereo not given)	> 100	> 100	> 100	> 100	> 100	> 100	–	> 100	> 100	> 100	–
CC(=O)C(=[N+]=[N-])C(=O)N(C)CCC#N	> 10	> 10	> 10	> 10	–	> 10	> 10	> 10	> 10	> 10	–
O=C1CCCCC/C1=C\c1ccccc1	–	> 100	> 100	> 100	> 100	–	–	> 100	> 100	> 100	–
O=C(O)c1ccc(Nc2nc3cc(C(F)(F)F)ccc3n3cccc23)cc1	> 100	> 100	> 100	> 100	–	> 100	58.8	–	> 100	> 100	–
COc1cc2ccc1OCc1cccc(n1)COc1ccc(cc1OC)C=NCCNCCNCCN=C2	> 100	> 100	> 100	> 100	> 100	> 100	> 100	> 100	> 100	–	–
CN1C(=O)CC2CCC(=O)N2c2cccnc21 (stereo not given)	> 100	> 100	> 100	> 100	> 100	> 100	–	> 100	> 100	> 100	–
CC(C)(C)OC(=O)Cn1ncn(NC(=O)Cc2ccccc2)c1=O	> 10	> 10	> 10	> 10	> 10	> 10	–	> 10	> 10	> 10	–
O=C(OC/C=C1C=C(OC(=O)c2ccccc2)/C(=N/N(C(=O)c2ccccc2)c2ccccc2)O\1)c1ccccc1	2.1	–	19.7	21.5	22.1	23.6	5.58	22.7	21.8	–	8.35
CN(C(=O)Cc1cc(Cl)c(Cl)cc1NC(=O)CN)[C@H]1CCCC[C@@H]1N1CCCC1	73.3	> 100	> 100	> 100	> 100	> 100	> 100	> 100	> 100	–	–
NC1Cc2ccccc2OC1=O (stereo not given)	–	> 100	> 100	> 100	–	> 100	> 100	> 100	> 100	> 100	–
